According to a compilation of properties of binary mixtures (doi:10.1021/je060123k):

Assay: xn = mol fraction of the nth substance listed
Details: 101 kPa

CCCCCCCCn1cc[n+](C)c1.[Cl-] + CO
Details	speed of sound, 298.15 K [m/s]	speed of sound, 313.15 K [m/s]	speed of sound, 328.15 K [m/s]	viscosity, 298.15 K [mPa·s]	viscosity, 313.15 K [mPa·s]	viscosity, 328.15 K [mPa·s]
x1 = 0.0197	–	1110	1070	–	0.594	0.497
x2 = 0	1721	1624	1560	21000	4100	1091
x2 = 0.0565	1683	1602	1548	10400	2450	760
x2 = 0.1686	1638	1578	1531	3500	1002	365
x2 = 0.2638	1608	1558	1514	1489	500	205
x2 = 0.3525	–	1536	1496	–	212	99
x2 = 0.4395	–	1518	–	–	106.7	–
x2 = 0.5589	–	–	1447	–	–	21.44
x2 = 0.7536	1447	1406	1365	8.43	5.82	4.39
x2 = 0.8231	1397	–	–	4.19	–	–
x2 = 0.8713	–	1304	1263	–	1.854	1.491
x2 = 0.8813	–	1292	1250	–	1.722	1.388
x2 = 0.9236	1274	1229	1186	1.416	1.133	0.93
x2 = 0.9436	1237	1192	1147	1.135	0.914	0.754

CCCCCCCCn1cc[n+](C)c1.[Cl-] + CCCO
Details	speed of sound, 298.15 K [m/s]	speed of sound, 313.15 K [m/s]	speed of sound, 328.15 K [m/s]	viscosity, 298.15 K [mPa·s]	viscosity, 313.15 K [mPa·s]	viscosity, 328.15 K [mPa·s]
x2 = 0	–	1624	–	–	4100	–
x2 = 0.1071	1659	1584	–	7200	1720	–
x2 = 0.2407	1593	1539	–	2056	650	–
x2 = 0.3036	1566	1517	–	910	334	–
x2 = 0.407	1531	–	1445	386	–	77.4
x2 = 0.4887	1504	1461	1421	179	84.1	42.7
x2 = 0.6209	1456	1414	–	50.81	28.81	–
x2 = 0.7248	–	1369	–	–	12.22	–
x2 = 0.8516	1342	1296	1250	6.34	4.4	3.189
x2 = 0.9024	–	1257	1211	–	3.23	2.352
x2 = 0.94	1271	1223	–	3.238	2.293	–
x2 = 0.9729	1238	1188	–	2.648	1.878	–

CCCO + CCCCCCCCn1cc[n+](C)c1.[Cl-]
x1 = 1
Details	speed of sound [m/s]	viscosity [mPa·s]
298.15 K	1205	1.951
313.15 K	1155	1.383
328.15 K	1105	1.007

CO + CCCCCCCCn1cc[n+](C)c1.[Cl-]
x1 = 1
Details	speed of sound [m/s]	viscosity [mPa·s]
298.15 K	1103	0.543
328.15 K	1008	0.369

CCCCCCCCn1cc[n+](C)c1.[Cl-] + CCO
Details	speed of sound, 298.15 K [m/s]	speed of sound, 313.15 K [m/s]	speed of sound, 328.15 K [m/s]	viscosity, 298.15 K [mPa·s]	viscosity, 313.15 K [mPa·s]	viscosity, 328.15 K [mPa·s]
x2 = 0	1721	1624	1560	21000	4100	1091
x2 = 0.0449	–	1606	–	–	2717	–
x2 = 0.1305	–	1578	1527	–	1411	481
x2 = 0.2969	1579	1530	1487	1127	394	165
x2 = 0.4753	1518	1477	1438	186	88	45.2
x2 = 0.6858	1437	–	–	21.26	–	–
x2 = 0.8809	1304	1258	–	3.5	2.601	–
x2 = 0.917	1264	1218	1175	2.551	1.919	1.488
x2 = 0.955	1215	1169	1122	1.754	1.341	1.038
x2 = 0.9794	1179	–	–	1.396	–	–

CCO + CCCCCCCCn1cc[n+](C)c1.[Cl-]
x1 = 1
Details	speed of sound [m/s]	viscosity [mPa·s]
298.15 K	1143	1.085
313.15 K	1093	0.826
328.15 K	1043	0.641
